Results on 23 compounds are retold here after the supplement of paper PMC6965134.

± gives the standard deviation of the averaged measurements.

This data set in a line: TIMS collisional cross section (CCS, N2) of the lipid ion; higher = larger ion cross section. Conditions: ionization mode: positive, one isomer drawn.

Turning to `CCCCC/C=C\C/C=C\C/C=C\CCCCCCC(=O)O[C@@H](CO)COC(=O)CCCCCCCCCCCCCCCCC` [DG 18:0_20:3_0:0] (ion (formula + adduct): [C41H74O5+NH4] 1+), under “sample type: Liver”, the “TIMS collisional cross section” value is 271.8 Å². As to `CCCCCC/C=C\CCCCCCCC(=O)O[C@H](CO/C=C\CCCCCCCCCCCCCCCC)COP(=O)([O-])OCC[N+](C)(C)C` [PC P- 18:0@_16:1] (ion (formula + adduct): [C42H82NO7P+H] 1+), the “TIMS collisional cross section” value (sample type: HeLa) stood at 288.6 Å². The same measure, in the same setting: with `CCCCCCCCCCCCCCCCCCCCCC(=O)OC[C@@H](O)COP(=O)(O)OCCN` [LPE 22:0] (ion (formula + adduct): [C27H56NO7P+H] 1+) the figure was 236.4 Å². `CC/C=C\C/C=C\C/C=C\C/C=C\C/C=C\C/C=C\CCC(=O)OC[C@@H](COC(=O)CCCCCCC/C=C\CCCCCCCC)OC(=O)CCCCCCCCCCCCCCCCCCCCC` [TG 18:1_22:0_22:6] (ion (formula + adduct): [C65H112O6+NH4] 1+): under “sample type: Liver”, the “TIMS collisional cross section” value amounted to 344.7 Å². For the compound `CC/C=C\C/C=C\C/C=C\C/C=C\C/C=C\C/C=C\CCC(=O)O[C@H](COC(=O)CCCCCCC/C=C\CCCCCC)COP(=O)([O-])OCC[N+](C)(C)C` [PC 16:1_22:6@] (ion (formula + adduct): [C46H78NO8P+H] 1+), the “TIMS collisional cross section” value (sample type: HeLa) turned out to be 288.4 Å² and the “TIMS collisional cross section” value (sample type: Liver) turned out to be 289 Å². Regarding `CCCCC/C=C\C/C=C\CCCCCCCC(=O)OC[C@@H](COC(=O)CCCCCCCCCCCCCCCC)OC(=O)CCCCCCC/C=C\CCCCCCCC` [TG 17:0_18:1_18:2] (ion (formula + adduct): [C56H102O6+NH4] 1+), the “TIMS collisional cross section” value is, setting by setting: (sample type: Liver) 322.9 Å²; (sample type: plasma) 323.2 Å². As for `CCCCCCCCCCCCC/C=C/[C@@H](O)[C@H](CO[C@@H]1O[C@H](CO)[C@@H](O)C(O)C1O)NC(=O)CCCCCCCCCCCCCCCCCCCCC` (some centres not stated) [GlcCer d18:1_22:0@] (ion (formula + adduct): [C46H89NO8+H] 1+), the “TIMS collisional cross section” value worked out at 298.3 Å² (sample type: HeLa), 298.7 Å² (sample type: Liver) and 298.1 Å² (sample type: plasma). The matching figures for `CCCCCCCC/C=C\CCCCCCCC(=O)OC[C@@H](COC(=O)CCCCCCCCCCCCCCC)OC(=O)CCCCCCC/C=C\CCCCCCCC` [TG 16:0_18:1_18:1] (ion (formula + adduct): [C55H102O6+NH4] 1+): 322 Å², 322.4 Å² and 322.45 ± 0.21 Å². Turning to `CCCCC/C=C\C/C=C\C/C=C\C/C=C\CCCC(=O)O[C@H](COC(=O)CCCCCCC/C=C\CCCCCCCC)COP(=O)([O-])OCC[N+](C)(C)C` [PC 18:1@_20:4] (ion (formula + adduct): [C46H82NO8P+H] 1+), the “TIMS collisional cross section” value (sample type: HeLa) is listed as 292.7 Å². In the case of `CC/C=C\C/C=C\C/C=C\C/C=C\C/C=C\C/C=C\CCC(=O)OC[C@@H](COC(=O)CCCCCCCCCCCCCCC)OC(=O)CCCCCC/C=C\C/C=C\C/C=C\CCCCC` [TG 16:0_20:3_22:6] (ion (formula + adduct): [C61H100O6+NH4] 1+), the “TIMS collisional cross section” value is reported as 329.4 Å² (sample type: HeLa) and 329.3 Å² (sample type: Liver). Turning to `CCCCC/C=C\C/C=C\CCCCCCCC(=O)O[C@H](COC(=O)CCCCCCC/C=C\CCCCCCCC)COC(=O)CCCCCCCCCCC/C=C\CCCCCCCC` [TG 18:1_18:2_22:1] (ion (formula + adduct): [C61H110O6+NH4] 1+), the “TIMS collisional cross section” value is, setting by setting: (sample type: Liver) 335.3 Å²; (sample type: plasma) 335 Å². As to `CCCCC/C=C\C/C=C\C/C=C\CCCCCCC(=O)OC[C@@H](O)COP(=O)([O-])OCC[N+](C)(C)C` [LPC 20:3] (ion (formula + adduct): [C28H52NO7P+H] 1+), the “TIMS collisional cross section” value runs as follows: (sample type: HeLa) 234.05 ± 2.8 Å²; (sample type: Liver) 236.2 Å²; (sample type: plasma) 232.57 ± 2.1 Å². For the compound `CCCCC/C=C\C/C=C\C/C=C\C/C=C\CCCC(=O)OC[C@@H](COC(=O)CCCCCCCCCCCCCCC)OC(=O)CCCCCCCCCCCCCCC` [TG 16:0_16:0_20:4] (ion (formula + adduct): [C55H98O6+NH4] 1+), the “TIMS collisional cross section” value (sample type: HeLa) is recorded as 320.5 Å². Take `CCCCC/C=C\C/C=C\CCCCCCCC(=O)OC[C@H](CO)OC(=O)CCCCCCCCC/C=C\CCCCCCCC` [DG 18:2_20:1_0:0] (ion (formula + adduct): [C41H74O5+NH4] 1+): the “TIMS collisional cross section” value (sample type: Liver) stood at 268.2 Å². For the compound `CCCCCCCCCCCCCCCC(=O)O[C@@H](CO)COC(=O)CCCCCCCCCCCCC` [DG 14:0_16:0_0:0] (ion (formula + adduct): [C33H64O5+NH4] 1+), the “TIMS collisional cross section” value was determined as 252.4 Å² (sample type: HeLa) and 252.7 Å² (sample type: Liver).

On to `CCCCCC/C=C\CCCCCCCC(=O)OC[C@H](COC(=O)CCCCCCCCCCCCCCCCC)OC(=O)CCCCCCCCCCCCCCCC` [TG 16:1_17:0_18:0] (ion (formula + adduct): [C54H102O6+NH4] 1+), for which the “TIMS collisional cross section” value (sample type: HeLa) was determined as 320.7 Å². Turning to `CCCCCCCC/C=C\CCCCCCCC(=O)O[C@H](COC(=O)CCCCCCCCCCCCCCCC)COC(=O)CCCCCCCCCCCCCCCCCCCCC` [TG 17:0_18:1_22:0] (ion (formula + adduct): [C60H114O6+NH4] 1+), the “TIMS collisional cross section” value reads like this: (sample type: Liver) 338.8 Å²; (sample type: plasma) 338.7 Å². Take `CC/C=C\C/C=C\C/C=C\C/C=C\C/C=C\CCCCCC(=O)OC[C@@H](COC(=O)CCCCCCCCCCCCCCCCC)OC(=O)CCC/C=C\C/C=C\C/C=C\C/C=C\CCCCC` [TG 18:0_20:4_22:5] (ion (formula + adduct): [C63H104O6+NH4] 1+): the “TIMS collisional cross section” value (sample type: HeLa) is 334.8 Å².

For `CCCCCCCCCCCCCCC(=O)O[C@H](COC(=O)CCCCCCCCCCCCC)COP(=O)([O-])OCC[N+](C)(C)C` [PC 14:0@_15:0] (ion (formula + adduct): [C37H74NO8P+H] 1+), the “TIMS collisional cross section” value (sample type: HeLa) is 276.1 Å².

For `CCCCCC/C=C\CCCCCCCC(=O)O[C@@H](COC(=O)CCCCCCC/C=C\CCCCCCCC)COC(=O)CCCCCCCCCCCCCCC` [TG 16:0_16:1_18:1] (ion (formula + adduct): [C53H98O6+NH4] 1+), the “TIMS collisional cross section” value is, setting by setting: (sample type: HeLa) 315.9 Å²; (sample type: Liver) 315.95 ± 0.53 Å²; (sample type: plasma) 315.8 ± 0.27 Å².

With `CCCCCCCC/C=C\CCCCCCCC(=O)O[C@H](COCCCCCCCCCCCCCCCC)COP(=O)(O)OCCN` [PE O- 16:0@_18:1] (ion (formula + adduct): [C39H78NO7P+H] 1+), for the setting “sample type: HeLa”, the “TIMS collisional cross section” value came out at 276 Å².

For the compound `CCCCCCC/C=C\CCCCCCCC(=O)OC[C@@H](COC(=O)CCCCCCCCCCCCCC)OC(=O)CCCCCCCCCCCCCCC` [TG 15:0_16:0_17:1] (ion (formula + adduct): [C51H96O6+NH4] 1+), for the setting “sample type: Liver”, the “TIMS collisional cross section” value amounted to 311.4 Å².

In the case of `CC/C=C\C/C=C\C/C=C\C/C=C\C/C=C\C/C=C\CCC(=O)O[C@H](COC(=O)CCCCCCCCCCCCC)COP(=O)([O-])OCC[N+](C)(C)C` [PC 14:0_22:6@] (ion (formula + adduct): [C44H76NO8P+H] 1+), the “TIMS collisional cross section” value (sample type: HeLa) came out at 285.3 Å².
